From US8236523B2, “Camp reporters and high throughput assays” (The Johns Hopkins University, priority 2004, dated 2012)

Experiments:
Type in all cases: cell-based
cAMP [1] = experiment: High throughput 96-well plate assay using ICUE2 stable HEK293 cells; details: 1 μM Iso, 50 μM Fsk, 10 μM H89, 100 μM IBMX
Protocol: HEK293 cells which stably express ICUE2 (“ICUE2 stable HEK293 cells”) were grown to confluency in 10 cm dishes in DMEM, 10% FBS, 1% penicillin/streptomycin, and 250 μg/ml G418. HEK-293 cells were transfected with cDNA encoding ICUE2 using calcium phosphate at 40% confluency and allowed to grow for 40 hours. Cells were removed from the dish using 0.05% trypsin, spun down, and replaced with fresh media. ICUE2 stable HEK293 cells were counted on a hemocytometer using trypan blue stain. One hundred fifty thousand (150,000) cells were plated per well on a 96-well clear bottom assay plate in a total of 0.2 ml of media per […] and allowed to double once. Media was removed, cells were washed with Hanks buffered salt solution (HBSS) and then covered with 0.05 ml of HBSS per well. In a separate sterile plate, appropriate drugs were added to each well containing HBSS for a total volume of 0.05 ml. […] A baseline was established in three cycles, each consisting of a full plate reading of yellow intensity, followed by a reading of cyan intensity. Cells were then treated with isoproterenol (ISO; […] Readings were taken in six or twenty additional cycles. […] Baseline FRET ratios were calculated as the average ratio of yellow/cyan for each well before the addition of drug. FRET change was calculated as the percent increase of FRET ratio over baseline for each well during a given cycle. The FRET changes of all wells having undergone the same drug treatment were then averaged within each cycle, and that cycle was correlated with time.

cAMP [2] = experiment: 96-well live cell plate reading of HEK293 cells expressing ICUE3; details: HEK293 cells expressing ICUE3, 1 μM ISO, 50 μM FSK
Protocol: Plate reading used a 420DF20 excitation filter and two emission filters (470DF40 for cyan and 535DF25 for yellow). A baseline was established in three cycles, each consisting of a full plate reading of yellow intensity, followed by a reading of cyan intensity. Cells were then treated with isoproterenol (ISO; Aldrich), forskolin (Calbiochem), H89, propranolol, and 3-isobutyl-1-methylxanthine (IBMX) as indicated. Readings were taken in six or twenty additional cycles. Each cycle lasted 60 to 145 sec. Baseline FRET ratios were calculated as the average ratio of yellow/cyan for each well before the addition of drug. FRET change was calculated as the percent increase of FRET ratio over baseline for each well during a given cycle. The FRET changes of all wells having undergone the same drug treatment were then averaged within each cycle, and that cycle was correlated with time.
Live cell plate reading. HEK293 cells were transfected with cDNA encoding ICUE reporters using calcium phosphate at 40% confluency and allowed to grow for 40 hours. Cells were then trypsinized and plated in a Costar 3603 96-well assay plate (Coming) at a density of 150,000 cells per well. After incubation for another 24 hours, cells were washed once with HBSS and left in 150 μl HBSS at 20-25° C. Fluorescence reading was taken on a FLUOstar OPTIMA fluorescence microplate reader (BMG Labtechnologies Inc.) using a 420DF20 excitation filter and two emission filters (470DF40 for cyan and […] for yellow). A baseline was established in three cycles, each consisting of a full plate reading of yellow intensity, followed by a reading of cyan intensity. Each cycle lasted between 64 and 145 seconds. Readings were taken in additional cycles. FRET change was calculated as the percent increase of emission ratios (cyan-to-yellow) over baseline for each well during a given cycle. To assess the efficacy of the assay, several statistical parameters were calculated, including Z factor, coefficient of variation, and signal-to-noise ratio (Zhang et al., J. Biomol. Screen. 4, 67-73, 1999).

cAMP [3] = experiment: Dual-emission ratio (FRET) imaging of Epac-based cAMP reporters (ICUE1 and targeted fusions) in HEK-293 cells; details: HEK293 cells expressing ICUE1; 10 μM ISO, 50 μM FSK, 10 μM PGE1, 300 μM 8-pCPT-2′-O-Me-cAMP; average ± S.E.M
Protocol: Cell Culture. […] Cells were then transfected with FuGENE-6 transfection reagent (Roche) or calcium phosphate and allowed to grow for 12-24 hours before imaging.
Imaging. Cells were washed twice with Hanks' balanced salt solution buffer after 12- to 24-h incubation at 37° C. culture medium. Cells were maintained in buffer in the dark at room temperature with addition of isoproterenol (Aldrich), forskolin (Calbiochem), Prostaglandin E1 (PGE1) (Sigma), and 8-(4-chloro-phenylthio)-2′-O-methyl adenosine 3′,5′-monophosphate (8-pCPT-2′-O-Me-cAMP) (Axxora Biolog) as indicated. Cells were also treated with P-(4,5-dimethoxy-2-nitrobenzyl) adenosine 3′,5′-monophosphate (DMNB-cAMP) (Molecular Probe).
Cells were imaged on a Zeiss Axiovert 200M microscope with a cooled charge-coupled device camera MicroMAX BFT512 (Roper Scientific) controlled by METAFLUOR 6.2 software (Universal Imaging). Dual-emission ratio imaging used a 420DF20 excitation filter, a 450DRLP dichroic mirror and two emission filters (475DF40 for ECFP, 535DF25 for citrine) alternated by a filter changer Lambda 10-2 (Sutter Instruments). Exposure time was 100-500 ms and images were taken every 8-30 s. Fluorescent images were background-corrected by subtracting autofluorescence intensities of untransfected cells (or background with no cells) from the emission intensities of fluorescent cells expressing reporters. The ratios of cyan to yellow emissions were then calculated at different time points and normalized by dividing all ratios by the emission ratio just prior to stimulation therefore setting the basal emission ratio to 1.

## C=C[C@@]1(C)CC(=O)[C@]2(O)[C@@]3(C)[C@@H](O)CCC(C)(C)[C@@H]3[C@H](O)[C@H](OC(C)=O)[C@@]2(C)O1 [forskolin]
cAMP [1]; cycle 1 (1 cycle = 60 seconds)
  Average percent FRET response ± standard deviation, cycle 1: 0.36% ± 7.51%
cAMP [1]; cycle 2 (1 cycle = 60 seconds)
  Average percent FRET response ± standard deviation, cycle 2: 2.67% ± 4.53%
cAMP [1]; cycle 3 (1 cycle = 60 seconds)
  Average percent FRET response ± standard deviation, cycle 3: 8.71% ± 6.66%
cAMP [1]; cycle 4 (1 cycle = 60 seconds)
  Average percent FRET response ± standard deviation, cycle 4: 15.29% ± 3.37%
cAMP [1]; cycle 5 (1 cycle = 60 seconds)
  Average percent FRET response ± standard deviation, cycle 5: 15.23% ± 6.55%
cAMP [1]; cycle 6 (1 cycle = 60 seconds)
  Average percent FRET response ± standard deviation, cycle 6: 18.73% ± 3.97%
cAMP [1]; cycle 7 (1 cycle = 60 seconds)
  Average percent FRET response ± standard deviation, cycle 7: 20.79% ± 4.6%
cAMP [1]; cycle 8 (1 cycle = 60 seconds)
  Average percent FRET response ± standard deviation, cycle 8: 22.82% ± 4.58%
cAMP [1]; cycle 9 (1 cycle = 60 seconds)
  Average percent FRET response ± standard deviation, cycle 9: 24.98% ± 3.69%
cAMP [1]; cycle 10 (1 cycle = 60 seconds)
  Average percent FRET response ± standard deviation, cycle 10: 23.4% ± 4.53%
cAMP [1]; cycle 11 (1 cycle = 60 seconds)
  Average percent FRET response ± standard deviation, cycle 11: 24.46% ± 3.51%
cAMP [1]; cycle 12 (1 cycle = 60 seconds)
  Average percent FRET response ± standard deviation, cycle 12: 25.44% ± 2.14%
cAMP [1]; cycle 13 (1 cycle = 60 seconds)
  Average percent FRET response ± standard deviation, cycle 13: 24.97% ± 3.91%
cAMP [1]; cycle 14 (1 cycle = 60 seconds)
  Average percent FRET response ± standard deviation, cycle 14: 25.6% ± 4.31%
cAMP [1]; cycle 15 (1 cycle = 60 seconds)
  Average percent FRET response ± standard deviation, cycle 15: 27.0% ± 1.87%
cAMP [1]; cycle 16 (1 cycle = 60 seconds)
  Average percent FRET response ± standard deviation, cycle 16: 25.84% ± 3.57%
cAMP [1]; cycle 17 (1 cycle = 60 seconds)
  Average percent FRET response ± standard deviation, cycle 17: 26.32% ± 1.66%
cAMP [1]; cycle 18 (1 cycle = 60 seconds)
  Average percent FRET response ± standard deviation, cycle 18: 25.94% ± 3.05%
cAMP [1]; cycle 19 (1 cycle = 60 seconds)
  Average percent FRET response ± standard deviation, cycle 19: 25.98% ± 2.13%
cAMP [1]; cycle 20 (1 cycle = 60 seconds)
  Average percent FRET response ± standard deviation, cycle 20: 25.51% ± 1.67%
cAMP [2]; 0 sec., 10 μM PRO, 100 μM IBMX, 10 μM H89
  Average percent FRET response ± standard deviation, 0 sec.: 9.05% ± 3.18%
cAMP [2]; 145 sec., 10 μM PRO, 100 μM IBMX, 10 μM H89
  Average percent FRET response ± standard deviation, 145 sec.: 13.0% ± 3.17%
cAMP [2]; 290 sec., 10 μM PRO, 100 μM IBMX, 10 μM H89
  Average percent FRET response ± standard deviation, 290 sec.: 14.8% ± 3.35%
cAMP [2]; 435 sec., 10 μM PRO, 100 μM IBMX, 10 μM H89
  Average percent FRET response ± standard deviation, 435 sec.: 16.7% ± 3.33%
cAMP [2]; 580 sec., 10 μM PRO, 100 μM IBMX, 10 μM H89
  Average percent FRET response ± standard deviation, 580 sec.: 16.8% ± 3.27%
cAMP [2]; 725 sec., 10 μM PRO, 100 μM IBMX, 10 μM H89
  Average percent FRET response ± standard deviation, 725 sec.: 17.9% ± 3.63%
cAMP [2]; n=7
  maximal response / emission ratio change: 17.9%±3.6%
cAMP [3]
  increase in the ratio of cyan to yellow emissions (FRET response): 19.6%±1.0
